Data: the NIST ThermoML archive (doi:10.1021/je060210c)

Tests used:
[1] = xn = mol fraction of the nth substance listed; conditions: 101 kPa, Liquid; for speed of sound: Sing-around technique in a fixed-path interferometer
[2] = excess molar enthalpy (molar enthalpy of mixing); xn = mol fraction of the nth substance listed; conditions: 101 kPa, Liquid

C=C1CCC2CC1C2(C)C (stereo not drawn) [β-pinene] + CCCC(C)O
Conditions | excess molar enthalpy [kcal/mol] | mass density [kg/m3] | speed of sound [m/s]
[1], 283.15 K, x1 = 0.104 | – | 824.99 | 1291.4
[1], 283.15 K, x1 = 0.2047 | – | 832.2 | 1295.3
[1], 283.15 K, x1 = 0.3071 | – | 839.03 | 1299.3
[1], 283.15 K, x1 = 0.3997 | – | 844.95 | 1303.5
[1], 283.15 K, x1 = 0.4964 | – | 850.86 | 1308.8
[1], 283.15 K, x1 = 0.6058 | – | 857.28 | 1316.2
[1], 283.15 K, x1 = 0.6929 | – | 862.26 | 1323.1
[1], 283.15 K, x1 = 0.8016 | – | 868.23 | 1332.7
[1], 283.15 K, x1 = 0.904 | – | 873.67 | 1342.4
[1], 283.15 K, x1 = 0.9454 | – | 875.83 | 1346.8
[1], 298.15 K, x1 = 0.1056 | – | 812.89 | 1235
[1], 298.15 K, x1 = 0.2051 | – | 819.88 | 1238.6
[1], 298.15 K, x1 = 0.3052 | – | 826.49 | 1241.5
[1], 298.15 K, x1 = 0.4038 | – | 832.72 | 1245.8
[1], 298.15 K, x1 = 0.5068 | – | 838.99 | 1251.5
[1], 298.15 K, x1 = 0.601 | – | 844.56 | 1257.8
[1], 298.15 K, x1 = 0.695 | – | 849.94 | 1265
[1], 298.15 K, x1 = 0.8014 | – | 855.84 | 1273.7
[1], 298.15 K, x1 = 0.9001 | – | 861.15 | 1282.7
[1], 298.15 K, x1 = 0.9499 | – | 863.9 | 1288.2
[1], 313.15 K, x1 = 0.1069 | – | 800.02 | 1170.1
[1], 313.15 K, x1 = 0.1981 | – | 806.39 | 1173.2
[1], 313.15 K, x1 = 0.3039 | – | 813.43 | 1177.7
[1], 313.15 K, x1 = 0.4034 | – | 819.78 | 1182.2
[1], 313.15 K, x1 = 0.5067 | – | 826.14 | 1188.2
[1], 313.15 K, x1 = 0.6023 | – | 831.84 | 1195.1
[1], 313.15 K, x1 = 0.7005 | – | 837.55 | 1203.4
[1], 313.15 K, x1 = 0.7975 | – | 843.07 | 1212.8
[1], 313.15 K, x1 = 0.8956 | – | – | 1223.2
[1], 313.15 K, x1 = 0.8957 | – | 848.53 | –
[1], 313.15 K, x1 = 0.9497 | – | 851.6 | 1229.6
[2], 283.15 K, x1 = 0.049 | 0.0299 | – | –
[2], 283.15 K, x1 = 0.1 | 0.0631 | – | –
[2], 283.15 K, x1 = 0.193 | 0.117 | – | –
[2], 283.15 K, x1 = 0.294 | 0.163 | – | –
[2], 283.15 K, x1 = 0.395 | 0.194 | – | –
[2], 283.15 K, x1 = 0.495 | 0.21 | – | –
[2], 283.15 K, x1 = 0.591 | 0.21 | – | –
[2], 283.15 K, x1 = 0.695 | 0.194 | – | –
[2], 283.15 K, x1 = 0.794 | 0.168 | – | –
[2], 283.15 K, x1 = 0.9 | 0.123 | – | –
[2], 283.15 K, x1 = 0.942 | 0.092 | – | –
[2], 283.15 K, x1 = 0.971 | 0.066 | – | –
[2], 283.15 K, x1 = 0.985 | 0.0356 | – | –
[2], 298.15 K, x1 = 0.049 | 0.0382 | – | –
[2], 298.15 K, x1 = 0.1 | 0.0803 | – | –
[2], 298.15 K, x1 = 0.193 | 0.149 | – | –
[2], 298.15 K, x1 = 0.294 | 0.206 | – | –
[2], 298.15 K, x1 = 0.395 | 0.243 | – | –
[2], 298.15 K, x1 = 0.495 | 0.263 | – | –
[2], 298.15 K, x1 = 0.591 | 0.263 | – | –
[2], 298.15 K, x1 = 0.695 | 0.253 | – | –
[2], 298.15 K, x1 = 0.794 | 0.224 | – | –
[2], 298.15 K, x1 = 0.9 | 0.172 | – | –
[2], 298.15 K, x1 = 0.942 | 0.124 | – | –
[2], 298.15 K, x1 = 0.971 | 0.0875 | – | –
[2], 298.15 K, x1 = 0.985 | 0.0452 | – | –
[2], 313.15 K, x1 = 0.049 | 0.05 | – | –
[2], 313.15 K, x1 = 0.1 | 0.0987 | – | –
[2], 313.15 K, x1 = 0.193 | 0.179 | – | –
[2], 313.15 K, x1 = 0.294 | 0.245 | – | –
[2], 313.15 K, x1 = 0.395 | 0.289 | – | –
[2], 313.15 K, x1 = 0.495 | 0.315 | – | –
[2], 313.15 K, x1 = 0.591 | 0.321 | – | –
[2], 313.15 K, x1 = 0.695 | 0.313 | – | –
[2], 313.15 K, x1 = 0.794 | 0.286 | – | –
[2], 313.15 K, x1 = 0.9 | 0.21 | – | –
[2], 313.15 K, x1 = 0.942 | 0.153 | – | –
[2], 313.15 K, x1 = 0.971 | 0.0968 | – | –
[2], 313.15 K, x1 = 0.985 | 0.0442 | – | –

C=C1CCC2CC1C2(C)C (stereo not drawn) [β-pinene] + CCCCCO
Conditions | excess molar enthalpy [kcal/mol] | mass density [kg/m3] | speed of sound [m/s]
[1], 283.15 K, x1 = 0.1075 | – | 830.13 | 1327.7
[1], 283.15 K, x1 = 0.2016 | – | 836.79 | 1328.9
[1], 283.15 K, x1 = 0.3016 | – | 843.32 | 1330.6
[1], 283.15 K, x1 = 0.4028 | – | 849.41 | 1331.6
[1], 283.15 K, x1 = 0.5026 | – | 854.98 | 1333.2
[1], 283.15 K, x1 = 0.6034 | – | 860.24 | 1335.1
[1], 283.15 K, x1 = 0.7014 | – | 865.12 | 1337.8
[1], 283.15 K, x1 = 0.8036 | – | 869.97 | 1341.4
[1], 283.15 K, x1 = 0.9009 | – | 874.43 | 1346.2
[1], 283.15 K, x1 = 0.9481 | – | 876.59 | 1349.3
[1], 298.15 K, x1 = 0.1004 | – | – | 1275
[1], 298.15 K, x1 = 0.1057 | – | 819.15 | –
[1], 298.15 K, x1 = 0.2012 | – | 825.47 | –
[1], 298.15 K, x1 = 0.2024 | – | – | 1275.5
[1], 298.15 K, x1 = 0.3032 | – | 831.91 | –
[1], 298.15 K, x1 = 0.3081 | – | – | 1275.8
[1], 298.15 K, x1 = 0.3975 | – | – | 1275.9
[1], 298.15 K, x1 = 0.4023 | – | 837.67 | –
[1], 298.15 K, x1 = 0.4982 | – | – | 1276.4
[1], 298.15 K, x1 = 0.4984 | – | 842.91 | –
[1], 298.15 K, x1 = 0.6021 | – | 848.24 | 1277.9
[1], 298.15 K, x1 = 0.6945 | – | 852.74 | –
[1], 298.15 K, x1 = 0.696 | – | – | 1279.6
[1], 298.15 K, x1 = 0.7994 | – | 857.65 | –
[1], 298.15 K, x1 = 0.8066 | – | – | 1283
[1], 298.15 K, x1 = 0.8952 | – | – | 1286.9
[1], 298.15 K, x1 = 0.8997 | – | 862.25 | –
[1], 298.15 K, x1 = 0.9465 | – | 864.37 | –
[1], 298.15 K, x1 = 0.9528 | – | – | 1291
[1], 313.15 K, x1 = 0.1007 | – | 807.27 | –
[1], 313.15 K, x1 = 0.1023 | – | – | 1223.7
[1], 313.15 K, x1 = 0.2007 | – | – | 1221.7
[1], 313.15 K, x1 = 0.2048 | – | 814.01 | –
[1], 313.15 K, x1 = 0.3027 | – | 819.95 | –
[1], 313.15 K, x1 = 0.3049 | – | – | 1220.9
[1], 313.15 K, x1 = 0.4019 | – | 825.6 | 1220.4
[1], 313.15 K, x1 = 0.5024 | – | 830.92 | 1220.6
[1], 313.15 K, x1 = 0.5976 | – | 835.75 | 1221.2
[1], 313.15 K, x1 = 0.6977 | – | 840.54 | 1222.1
[1], 313.15 K, x1 = 0.7991 | – | 845.26 | 1224.3
[1], 313.15 K, x1 = 0.9066 | – | 850.18 | 1228.6
[1], 313.15 K, x1 = 0.9468 | – | 852.1 | 1231
[2], 283.15 K, x1 = 0.049 | 0.00669 | – | –
[2], 283.15 K, x1 = 0.096 | 0.0155 | – | –
[2], 283.15 K, x1 = 0.192 | 0.0325 | – | –
[2], 283.15 K, x1 = 0.286 | 0.05 | – | –
[2], 283.15 K, x1 = 0.388 | 0.0645 | – | –
[2], 283.15 K, x1 = 0.488 | 0.0753 | – | –
[2], 283.15 K, x1 = 0.588 | 0.081 | – | –
[2], 283.15 K, x1 = 0.69 | 0.0825 | – | –
[2], 283.15 K, x1 = 0.791 | 0.077 | – | –
[2], 283.15 K, x1 = 0.892 | 0.0605 | – | –
[2], 283.15 K, x1 = 0.95 | 0.0478 | – | –
[2], 283.15 K, x1 = 0.97 | 0.0359 | – | –
[2], 283.15 K, x1 = 0.99 | 0.0227 | – | –
[2], 298.15 K, x1 = 0.049 | 0.0177 | – | –
[2], 298.15 K, x1 = 0.096 | 0.037 | – | –
[2], 298.15 K, x1 = 0.192 | 0.075 | – | –
[2], 298.15 K, x1 = 0.286 | 0.11 | – | –
[2], 298.15 K, x1 = 0.388 | 0.14 | – | –
[2], 298.15 K, x1 = 0.488 | 0.16 | – | –
[2], 298.15 K, x1 = 0.588 | 0.172 | – | –
[2], 298.15 K, x1 = 0.69 | 0.174 | – | –
[2], 298.15 K, x1 = 0.791 | 0.161 | – | –
[2], 298.15 K, x1 = 0.892 | 0.126 | – | –
[2], 298.15 K, x1 = 0.95 | 0.092 | – | –
[2], 298.15 K, x1 = 0.97 | 0.0731 | – | –
[2], 298.15 K, x1 = 0.99 | 0.0588 | – | –
[2], 313.15 K, x1 = 0.049 | 0.0256 | – | –
[2], 313.15 K, x1 = 0.096 | 0.0535 | – | –
[2], 313.15 K, x1 = 0.192 | 0.106 | – | –
[2], 313.15 K, x1 = 0.286 | 0.155 | – | –
[2], 313.15 K, x1 = 0.388 | 0.194 | – | –
[2], 313.15 K, x1 = 0.488 | 0.221 | – | –
[2], 313.15 K, x1 = 0.588 | 0.236 | – | –
[2], 313.15 K, x1 = 0.69 | 0.238 | – | –
[2], 313.15 K, x1 = 0.791 | 0.222 | – | –
[2], 313.15 K, x1 = 0.892 | 0.182 | – | –
[2], 313.15 K, x1 = 0.95 | 0.128 | – | –
[2], 313.15 K, x1 = 0.97 | 0.0954 | – | –
[2], 313.15 K, x1 = 0.99 | 0.0327 | – | –
